Laboratory results as given in patent publication US20230097866A1, “BACTERIAL TOPOISOMERASE INHIBITORS DERIVED FROM ISOMANNIDE” (Ohio State Innovation Foundation, priority 2020, published 2023).
In brackets after ≈: the same amount, converted by molar mass.

Assays:
H37Rv (rpoB^S450L) = format: cell-based, Mycobacterium tuberculosis
H37Rv (katG^del) = experiment: microbe, parasite or virus in culture; format: cell-based; settings: Mycobacterium tuberculosis, microbroth dilution
H37Rv (gyrA^D94K) = format: cell-based, Mycobacterium tuberculosis

Structure (SMILES) | MIC H37Rv (rpoB^S450L) (H37Rv (rpoB^S450L)) | MIC (H37Rv (katG^del)) | MIC H37Rv (gyrA^D94K) (H37Rv (gyrA^D94K))
COc1ccc2ncc(F)c(CC[C@@]3(O)CO[C@@H]4[C@@H](NCc5ccc(C)cc5)CO[C@@H]43)c2n1 [Compound 25, (3R,3aS,6S,6aR)-3-(2-(3-fluora-6-methoxy-1,5-naphthyridin-4-yl)ethyl)-6-((4-methyllbenzyl)amino)hexahydrofuro[3,2-b]furan-3-ol] | 4 µg/mL (≈ 8.82 µM) | 4 µg/mL (≈ 8.82 µM) | 16 µg/mL (≈ 35.3 µM)
COc1ccc2ncc(F)c(CC[C@@]3(O)CO[C@@H]4[C@@H](NCc5ccc(Cl)c(Cl)c5)CO[C@@H]43)c2n1 [Compound 26, (3R,3aS,6S,6aR)-6-((3,4-dichlorobenzyl)amino)-3-(2-(3-fluoro-6-methoxy-1,5-napkthyridin-4-yl)ethyl)hexahydrofuro[3,2-b]-furan-3-ol] | 1 µg/mL (≈ 1.97 µM) | 1 µg/mL (≈ 1.97 µM) | 2 µg/mL (≈ 3.93 µM)
